In PubChem BioAssay AID330 (DTP/NCI, 2004):
Where “and” joins values, the source holds several entries; their conditions need not be identical. Equal entries are not always repeated. Inconclusive results and toxic doses are left out. The calls were made as follows: active = survival T/C of 150% or more; inactive = T/C below 125% in these data.

Test system: P388 leukemia ip, CD2F1 mice, survival T/C
Experiment: NCI In Vivo Anticancer Drug Screen. Data for tumor model P388 Leukemia (intraperitoneal) in CD2F1 (CDF1) mice
Settings: endpoint: median survival time, higher = longer survival
Outline: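 Mice carrying the transplanted tumor received test compound or vehicle. Survival was recorded in each group, and the value is the treated-group measurement divided by that of the vehicle-treated control group.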

[1] = dose: 100.0 mg/kg/injection, schedule: Q01DX009 (ip), vehicle: saline
[2] = dose: 50.0 mg/kg/injection, schedule: Q01DX005 (ip), vehicle: Klucel (hydroxypropylcellulose) (HPC)
[3] = dose: 100.0 mg/kg/injection, schedule: Q01DX005 (ip), vehicle: Klucel (hydroxypropylcellulose) (HPC)
[4] = dose: 200.0 mg/kg/injection, schedule: Q01DX005 (ip), vehicle: Klucel (hydroxypropylcellulose) (HPC)
[5] = dose: 6.25 mg/kg/injection, schedule: Q01DX009 (ip), vehicle: saline
[6] = dose: 12.5 mg/kg/injection, schedule: Q01DX009 (ip), vehicle: saline
[7] = dose: 50.0 mg/kg/injection, schedule: Q01DX005 (ip), vehicle: saline with Tween-80
[8] = dose: 100.0 mg/kg/injection, schedule: Q01DX005 (ip), vehicle: saline with Tween-80
[9] = dose: 200.0 mg/kg/injection, schedule: Q01DX005 (ip), vehicle: saline with Tween-80
[10] = dose: 60.0 mg/kg/injection, schedule: Q01DX005 (ip), vehicle: Klucel (hydroxypropylcellulose) (HPC)
[11] = dose: 120.0 mg/kg/injection, schedule: Q01DX005 (ip), vehicle: Klucel (hydroxypropylcellulose) (HPC)

Measured: T/C

C=CCC12C[C@H](OC)[C@@H](O)[C@](OC)(C1O)[C@H](c1ccc3c(c1)OCO3)[C@H]2C (stereo partly drawn)
inactive: dose: 16.25 mg/kg/injection, schedule: Q01DX005 (ip), vehicle: Klucel (hydroxypropylcellulose) (HPC) 108 % of control | dose: 32.5 mg/kg/injection, schedule: Q01DX005 (ip), vehicle: Klucel (hydroxypropylcellulose) (HPC) 98 % of control | dose: 65.0 mg/kg/injection, schedule: Q01DX005 (ip), vehicle: Klucel (hydroxypropylcellulose) (HPC) 99 % of control | dose: 130.0 mg/kg/injection, schedule: Q01DX005 (ip), vehicle: Klucel (hydroxypropylcellulose) (HPC) 89 % of control

COc1ccc2[nH]c(=O)oc(=O)c2c1
inactive: dose: 25.0 mg/kg/injection, schedule: Q01DX009 (ip), vehicle: saline 100 % of control | dose: 50.0 mg/kg/injection, schedule: Q01DX009 (ip), vehicle: saline 96 % of control | [1] 107 % of control | dose: 200.0 mg/kg/injection, schedule: Q01DX009 (ip), vehicle: saline 107 % of control

CCC(Nc1nncs1)Nc1nncs1
inactive: [2] 100 % of control | [3] 99 % of control | [4] 98 % of control

C/C(N)=N/OC(c1ccccc1)(c1ccccc1)c1ccccc1
inactive: dose: 50.0 mg/kg/injection, schedule: Q01DX005 (ip), vehicle: Klucel + Tween-80 94 % of control | dose: 100.0 mg/kg/injection, schedule: Q01DX005 (ip), vehicle: Klucel + Tween-80 90 % of control | dose: 200.0 mg/kg/injection, schedule: Q01DX005 (ip), vehicle: Klucel + Tween-80 93 % of control

CC(C)[CH2][Pb]([CH2]C(C)C)([CH2]C(C)C)[n]1ccnc1
inactive: dose: 3.12 mg/kg/injection, schedule: Q01DX009 (ip), vehicle: saline 101 % of control | [5] 108 % of control | [6] 111 % of control

C#Cc1cccc(N=Cc2cc(Br)cc(OC)c2O)c1
inactive: [7] 90 % of control | [8] 92 % of control | [9] 111 % of control

NC(Cc1ccccc1)C(=O)CCl (stereo not drawn)
inactive: dose: 12.5 mg/kg/injection, schedule: Q01DX001 (ip), vehicle: saline 104 % of control | dose: 25.0 mg/kg/injection, schedule: Q01DX001 (ip), vehicle: saline 100 % of control

N[C@H]1CN([C@@H](C(=O)O)c2ccc(O)cc2)C1=O
inactive: [2] 105 % of control | [3] 105 % of control | [4] 103 % of control | dose: 400.0 mg/kg/injection, schedule: Q01DX005 (ip), vehicle: Klucel (hydroxypropylcellulose) (HPC) 99 % of control

Cc1ccccc1Nc1c2ccccc2nc2ccccc12
inactive: dose: 12.5 mg/kg/injection, schedule: Q04DX003 (ip), vehicle: saline with Tween-80 95 % of control | dose: 25.0 mg/kg/injection, schedule: Q04DX003 (ip), vehicle: saline with Tween-80 95 % of control | dose: 50.0 mg/kg/injection, schedule: Q04DX003 (ip), vehicle: saline with Tween-80 104 % of control

COc1cccc2c1C(=O)c1c(O)c3c(c(O)c1C2=O)CC1(O)CC3OC1(C)OC (stereo not drawn)
inactive: dose: 1.56 mg/kg/injection, schedule: Q01DX009 (ip), vehicle: other 104 % of control | dose: 3.13 mg/kg/injection, schedule: Q01DX009 (ip), vehicle: other 100 % of control | dose: 6.25 mg/kg/injection, schedule: Q01DX009 (ip), vehicle: other 96 % of control | dose: 12.5 mg/kg/injection, schedule: Q01DX009 (ip), vehicle: other 106 % of control | dose: 25.0 mg/kg/injection, schedule: Q01DX009 (ip), vehicle: other 106 % of control | dose: 25.0 mg/kg/injection, schedule: Q04DX003 (ip), vehicle: water 101 % of control | dose: 50.0 mg/kg/injection, schedule: Q04DX003 (ip), vehicle: water 100 % of control | dose: 100.0 mg/kg/injection, schedule: Q04DX003 (ip), vehicle: water 100 % of control | dose: 200.0 mg/kg/injection, schedule: Q04DX003 (ip), vehicle: water 103 % of control | dose: 400.0 mg/kg/injection, schedule: Q04DX003 (ip), vehicle: water 99 % of control

Clc1cc2nc3[nH]c4ccccc4c3nc2cc1Cl
inactive: dose: 15.0 mg/kg/injection, schedule: Q01DX005 (ip), vehicle: Klucel (hydroxypropylcellulose) (HPC) 93 % of control | dose: 30.0 mg/kg/injection, schedule: Q01DX005 (ip), vehicle: Klucel (hydroxypropylcellulose) (HPC) 101 % of control | [10] 93 % of control and 98 % of control | [11] 97 % of control

N#CC(C(N)=O)C1(C(C#N)C(N)=O)C(=O)Nc2ccccc21 (stereo not drawn)
inactive: dose: 25.0 mg/kg/injection, schedule: Q01DX005 (ip), vehicle: Klucel (hydroxypropylcellulose) (HPC) 103 % of control | [2] 100 % of control | [3] 98 % of control | [4] 100 % of control

CCOC(=O)C(Cc1ccc(N(CCCl)CCCl)cc1)NC(=O)C(C)NC(C)=O (stereo not drawn)
inactive: dose: 5.0 mg/kg/injection, schedule: Q04DX003 (ip), vehicle: water 108 % of control | dose: 10.0 mg/kg/injection, schedule: Q04DX003 (ip), vehicle: water 111 % of control and 113 % of control | dose: 40.0 mg/kg/injection, schedule: Q04DX003 (ip), vehicle: water 122 % of control

Cc1c2c(C#N)nccc2c(C)c2c1c1ccccc1n2Cc1ccccc1
inactive: dose: 6.25 mg/kg/injection, schedule: Q04DX003 (ip), vehicle: distilled water + Tween-80 96 % of control | dose: 12.5 mg/kg/injection, schedule: Q04DX003 (ip), vehicle: distilled water + Tween-80 90 % of control | dose: 25.0 mg/kg/injection, schedule: Q04DX003 (ip), vehicle: distilled water + Tween-80 87 % of control | dose: 50.0 mg/kg/injection, schedule: Q04DX003 (ip), vehicle: distilled water + Tween-80 87 % of control | dose: 100.0 mg/kg/injection, schedule: Q04DX003 (ip), vehicle: distilled water + Tween-80 90 % of control | dose: 200.0 mg/kg/injection, schedule: Q04DX003 (ip), vehicle: distilled water + Tween-80 91 % of control

O=C(O)c1c(O)ccc(O)c1C(=O)O
inactive: dose: 60.0 mg/kg/injection, schedule: Q01DX005 (ip), vehicle: saline with Tween-80 101 % of control | dose: 120.0 mg/kg/injection, schedule: Q01DX005 (ip), vehicle: saline with Tween-80 92 % of control | dose: 240.0 mg/kg/injection, schedule: Q01DX005 (ip), vehicle: saline with Tween-80 97 % of control

CCC1CCCC[N+]1(C)[B-](F)(F)F (stereo not drawn)
inactive: dose: 50.0 mg/kg/injection, schedule: Q01DX005 (ip), vehicle: saline 105 % of control | dose: 100.0 mg/kg/injection, schedule: Q01DX005 (ip), vehicle: saline 107 % of control

COc1ccc(N(CN2C(=O)CCC2=O)CS(=O)(=O)c2ccc(C)cc2)cc1
inactive: [10] 100 % of control | [11] 100 % of control | dose: 240.0 mg/kg/injection, schedule: Q01DX005 (ip), vehicle: Klucel (hydroxypropylcellulose) (HPC) 100 % of control

C/C(=N\NC(=S)N1CCCCCC1)c1cccc2cccnc12
inactive: [7] 107 % of control | [8] 103 % of control | [9] 116 % of control

NC1=NC(O)(c2ccccc2)C(O)(c2ccccc2)N1 (stereo not drawn)
inactive: dose: 25.0 mg/kg/injection, schedule: Q04DX002 (ip), vehicle: saline 98 % of control | dose: 50.0 mg/kg/injection, schedule: Q04DX002 (ip), vehicle: saline 97 % of control | dose: 100.0 mg/kg/injection, schedule: Q04DX002 (ip), vehicle: saline 98 % of control

CCC[CH2][Sn]([CH2]CCC)([CH2]CCC)[CH2]S(=O)(=O)O
inactive: [5] 108 % of control | [6] 119 % of control | [1] 116 % of control
